Legend:
[1] = biological target: T1, Acetylcholinesterase (Homo sapiens, UniProt P22303)
Description: Inhibition of AChE (unknown origin) using acetylcholine iodate as substrate preincubated for 10 mins followed by substrate addition by Lineweaver-Burk plot analysis

[2] = biological target: T1, Acetylcholinesterase; remark: listed apart in the source
Description: Inhibition of AChE (unknown origin) using acetylcholine iodate as substrate preincubated for 10 mins followed by substrate addition by Ellman's method

[3] = biological target: Acetylcholinesterase (Electrophorus electricus, UniProt O42275)
Chain of Acetylcholinesterase (Electrophorus electricus, UniProt O42275) (O42275 whole entry): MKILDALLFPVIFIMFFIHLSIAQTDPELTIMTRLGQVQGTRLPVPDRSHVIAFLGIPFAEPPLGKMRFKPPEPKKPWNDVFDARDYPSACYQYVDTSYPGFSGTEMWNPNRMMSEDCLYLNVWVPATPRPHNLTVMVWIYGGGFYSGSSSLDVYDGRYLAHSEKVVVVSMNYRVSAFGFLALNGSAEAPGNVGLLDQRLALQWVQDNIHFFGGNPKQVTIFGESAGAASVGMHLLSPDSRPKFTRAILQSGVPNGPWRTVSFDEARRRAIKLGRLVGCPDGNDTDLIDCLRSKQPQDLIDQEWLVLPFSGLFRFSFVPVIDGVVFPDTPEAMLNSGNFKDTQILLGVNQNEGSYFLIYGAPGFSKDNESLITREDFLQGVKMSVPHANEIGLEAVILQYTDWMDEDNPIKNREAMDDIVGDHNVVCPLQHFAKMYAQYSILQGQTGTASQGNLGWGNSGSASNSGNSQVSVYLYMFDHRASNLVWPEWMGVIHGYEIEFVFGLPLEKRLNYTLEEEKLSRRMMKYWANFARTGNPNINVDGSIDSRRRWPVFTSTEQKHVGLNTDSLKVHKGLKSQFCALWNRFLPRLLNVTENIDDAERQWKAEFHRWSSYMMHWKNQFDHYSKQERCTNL
Description: Inhibition of electric eel AChE using acetylthiocholine iodide as substrate preincubated for 10 mins followed by substrate addition by Lineweaver-Burk plot analysis

T1 sequence (P22303 whole entry): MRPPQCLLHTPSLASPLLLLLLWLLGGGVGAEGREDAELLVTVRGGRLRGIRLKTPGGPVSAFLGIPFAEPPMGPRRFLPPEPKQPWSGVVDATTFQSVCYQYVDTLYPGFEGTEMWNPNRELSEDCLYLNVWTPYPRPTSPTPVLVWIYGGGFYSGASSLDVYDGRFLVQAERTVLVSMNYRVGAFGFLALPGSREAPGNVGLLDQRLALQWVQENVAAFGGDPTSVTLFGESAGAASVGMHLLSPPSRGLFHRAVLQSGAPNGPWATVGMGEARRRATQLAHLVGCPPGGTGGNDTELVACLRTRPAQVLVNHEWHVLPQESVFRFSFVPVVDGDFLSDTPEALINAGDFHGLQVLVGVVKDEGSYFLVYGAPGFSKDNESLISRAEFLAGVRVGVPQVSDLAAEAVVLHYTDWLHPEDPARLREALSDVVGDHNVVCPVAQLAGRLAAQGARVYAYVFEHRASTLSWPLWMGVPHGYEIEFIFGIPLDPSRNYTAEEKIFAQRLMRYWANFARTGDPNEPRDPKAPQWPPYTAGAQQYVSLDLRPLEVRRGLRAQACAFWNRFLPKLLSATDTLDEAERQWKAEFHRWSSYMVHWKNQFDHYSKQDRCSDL

SMILES: CN(C)C(=O)N[C@H]1CCc2ccc(O)cc2C1
- Ki [1]: 1.74 nM
- IC50 [2]: 103 nM

SMILES: CN(C)C(=O)NC1CCc2cc(O)ccc2C1 (stereo not drawn)
- Ki [1]: 1.33 nM
- IC50 [2]: 7.16 nM

SMILES: CN(C)S(=O)(=O)N[C@H]1CCc2cc(O)ccc2C1
- Ki [1]: 1.22 nM
- IC50 [2]: 27.9 nM

SMILES: COc1ccc2c(c1)CC(NS(=O)(=O)N(C)C)CC2 (stereo not drawn)
- Ki [1]: 0.83 nM
- IC50 [2]: 15.8 nM

SMILES: COc1ccc2c(c1)CCC(NC(=O)N(C)C)C2 (stereo not drawn)
- Ki [1]: 0.67 nM
- IC50 [2]: 16.4 nM

SMILES: COc1cccc2c1CC[C@H](NC(=O)N(C)C)C2
- Ki [1]: 0.98 nM
- IC50 [2]: 19.9 nM

SMILES: CN(C)S(=O)(=O)NC1CCc2ccc(O)cc2C1 (stereo not drawn)
- Ki [1]: 0.72 nM
- IC50 [2]: 37 nM

SMILES: CN(C)S(=O)(=O)NC1CCc2c(O)cccc2C1 (stereo not drawn)
- Ki [1]: 1.34 nM
- IC50 [2]: 30.9 nM

SMILES: CN(C)C(=O)N[C@H]1CCc2c(O)cccc2C1
- Ki [1]: 1.59 nM
- IC50 [2]: 132 nM

SMILES: COc1ccc2c(c1)CCC(NS(=O)(=O)N(C)C)C2 (stereo not drawn)
- Ki [1]: 1.05 nM
- IC50 [2]: 17 nM

SMILES: COc1ccc2c(c1)C[C@@H](NC(=O)N(C)C)CC2
- Ki [1]: 1.06 nM
- IC50 [2]: 22.4 nM

SMILES: Oc1ccc(O)cc1 [HYDROQUINONE]
- Ki [3]: 1.22 nM
